Results taken from US10793563B2, “GCN2 inhibitors and uses thereof” (Merck Patent GmbH, priority 2018, dated 2020).

molecular target: GCN2 kinase (Homo sapiens (Human), UniProt Q9P2K8); test: GCN2 Enzyme Inhibition Assay (Transcreener ADP2 fluorescence polarization); format: biochemical; settings: 280 μM ATP, 200 μM (RS)7 peptide, 4 nM GCN2, 25° C.
Summary of the method: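 At 25 °C, GCN2 kinase (typical final concentration 4 nM) and (RS)7 peptide in Tris-HCl pH 7.5 buffer with MgCl2, NaCl and DTT were preincubated with compound for 10 min, then ATP was added for a 1 h reaction. ADP was read by FP with antibody/Alexa633 tracer. Non-linear tight-binding analysis gave IC50 and apparent Ki.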

Chain of GCN2 kinase (Q9P2K8 whole entry): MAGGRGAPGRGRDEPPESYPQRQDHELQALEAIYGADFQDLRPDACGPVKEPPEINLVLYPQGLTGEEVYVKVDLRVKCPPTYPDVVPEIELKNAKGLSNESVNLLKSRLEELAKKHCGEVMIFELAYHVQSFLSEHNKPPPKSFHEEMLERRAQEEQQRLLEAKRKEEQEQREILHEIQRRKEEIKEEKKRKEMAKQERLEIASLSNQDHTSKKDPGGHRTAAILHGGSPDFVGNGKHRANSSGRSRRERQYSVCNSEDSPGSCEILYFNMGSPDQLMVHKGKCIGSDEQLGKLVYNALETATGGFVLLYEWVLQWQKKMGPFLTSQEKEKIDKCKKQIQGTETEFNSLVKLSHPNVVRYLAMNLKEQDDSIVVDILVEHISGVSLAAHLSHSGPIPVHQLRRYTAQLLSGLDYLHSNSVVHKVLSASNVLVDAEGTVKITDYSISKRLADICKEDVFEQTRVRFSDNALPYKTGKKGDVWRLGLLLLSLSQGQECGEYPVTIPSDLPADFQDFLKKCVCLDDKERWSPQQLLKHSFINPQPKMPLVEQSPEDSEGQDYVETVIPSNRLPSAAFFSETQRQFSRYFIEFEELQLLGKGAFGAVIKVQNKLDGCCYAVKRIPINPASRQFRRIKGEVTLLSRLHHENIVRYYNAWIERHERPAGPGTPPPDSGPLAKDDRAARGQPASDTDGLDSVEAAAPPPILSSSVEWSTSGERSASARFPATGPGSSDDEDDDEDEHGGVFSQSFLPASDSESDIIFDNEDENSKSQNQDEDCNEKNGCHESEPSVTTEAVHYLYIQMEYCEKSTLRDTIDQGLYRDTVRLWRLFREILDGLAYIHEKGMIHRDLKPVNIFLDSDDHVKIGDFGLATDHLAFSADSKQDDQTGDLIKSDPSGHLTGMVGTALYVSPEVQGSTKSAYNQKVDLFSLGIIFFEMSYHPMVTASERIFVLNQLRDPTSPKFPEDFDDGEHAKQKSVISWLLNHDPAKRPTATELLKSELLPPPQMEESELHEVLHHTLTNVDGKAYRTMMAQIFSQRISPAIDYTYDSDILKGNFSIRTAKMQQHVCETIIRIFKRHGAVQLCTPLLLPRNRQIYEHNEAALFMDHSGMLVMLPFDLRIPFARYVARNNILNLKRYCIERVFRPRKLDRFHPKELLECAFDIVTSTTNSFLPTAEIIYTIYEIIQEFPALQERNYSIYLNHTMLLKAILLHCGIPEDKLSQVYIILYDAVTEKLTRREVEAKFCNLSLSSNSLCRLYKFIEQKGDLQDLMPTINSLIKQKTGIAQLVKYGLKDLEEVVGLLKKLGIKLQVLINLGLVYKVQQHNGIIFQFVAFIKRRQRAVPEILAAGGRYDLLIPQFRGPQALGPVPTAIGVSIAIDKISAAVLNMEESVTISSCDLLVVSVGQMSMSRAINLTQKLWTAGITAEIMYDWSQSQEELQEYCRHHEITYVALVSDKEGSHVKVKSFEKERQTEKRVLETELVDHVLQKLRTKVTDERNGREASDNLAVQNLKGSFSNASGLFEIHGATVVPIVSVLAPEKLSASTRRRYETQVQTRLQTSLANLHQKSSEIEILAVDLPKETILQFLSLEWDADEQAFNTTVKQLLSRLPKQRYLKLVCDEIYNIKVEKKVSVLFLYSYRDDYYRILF

Which IC50 does the source give for `CC1C(C(N)=O)NCCN1c1ccnc(-c2cnc3cc(F)c(C4CC4)cn23)n1` (centres unmarked) [I-455, 4-(2-(6-cyclopropyl-7-fluoroimidazo[1,2-a]pyridin-3-yl)pyrimidin-4-yl)-3-methylpiperazine-2-carboxamide] here?
The IC50 was 10 to 100 nM.

With `FC(F)(F)c1ccc2ncc(-c3nccc(N4CCN(CC5CC56CC6)C(c5cn[nH]c5)C4)n3)n2c1` (centres unmarked) [I-475, 3-(4-(3-(1H-pyrazol-4-yl)-4-(spiro[2.2]pentan-1-ylmethyl)piperazin-1-yl)pyrimidin-2-yl)-6-(trifluoromethyl)imidazo[1,2-a]pyridine] as the molecule, how does the IC50 read?
The IC50 was 10 to 100 nM.

With `Cc1noc(C)c1C(=O)N1CCN(c2ccnc(-c3cnc4ccc(C(F)(F)F)cn34)n2)CC1c1cn[nH]c1` (centres unmarked) [I-519, (2-(1H-pyrazol-4-yl)-4-(2-(6-(trifluoromethyl)imidazo[1,2-a]pyridin-3-yl)pyrimidin-4-yl)piperazin-1-yl)(3,5-dimethylisoxazol-4-yl)methanone] as the molecule, how does the IC50 read?
The IC50 was 100 to 1000 nM.

`O=C([C@H]1C[C@H]1F)N1CCN(c2ccnc(-c3cnc4ccc(C(F)(F)F)cn34)n2)CC1c1cn[nH]c1` (stereo in doubt) [I-485, (2-(1H-pyrazol-4-yl)-4-(2-(6-(trifluoromethyl)imidazo[1,2-a]pyridin-3-yl)pyrimidin-4-yl)piperazin-1-yl)((1R,2R)-2-fluorocyclopropyl)methanone] was tested. Which IC50 did it give?
The IC50 was 10 to 100 nM.

For `CC(C)(O)C(=O)N1CCN(c2ccnc(-c3cnc4ccc(C(F)(F)F)cn34)n2)CC1c1cn[nH]c1` (centres unmarked) [I-514, 1-(2-(1H-pyrazol-4-yl)-4-(2-(6-(trifluoromethyl)imidazo[1,2-a]pyridin-3-yl)pyrimidin-4-yl)piperazin-1-yl)-2-hydroxy-2-methylpropan-1-one], which IC50 is on record?
Its IC50 is 100 to 1000 nM.

With `NC(=O)CC1CN(c2ccnc(-c3cnc4ccc(C(F)(F)F)cn34)n2)C1` [I-230, 2-(1-(2-(6-(trifluoromethyl)imidazo[1,2-a]pyridin-3-yl)pyrimidin-4-yl)azetidin-3-yl)acetamide] as the molecule, how does the IC50 read?
Its IC50 is 10 to 100 nM.

For `FC(F)(F)c1ccc2ncc(-c3nccc(N4CCN(C5CCOCC5)C(c5cn[nH]c5)C4)n3)n2c1` (centres unmarked) [I-456, 3-(4-(3-(1H-pyrazol-4-yl)-4-(tetrahydro-2H-pyran-4-yl)piperazin-1-yl)pyrimidin-2-yl)-6-(trifluoromethyl)imidazo[1,2-a]pyridine], which IC50 is on record?
Its IC50 is 10 to 100 nM.

Which IC50 does the source give for `CC(C)(C)OC(=O)N1CCN(c2ccnc(-c3cnc4ccc(C(F)(F)F)cn34)n2)CC1C(N)=O` (centres unmarked) [I-207, tert-butyl 2-carbamoyl-4-(2-(6-(trifluoromethyl)imidazo[1,2-a]pyridin-3-yl)pyrimidin-4-yl)piperazine-1-carboxylate] here?
Its IC50 is 100 to 1000 nM.

`Fc1cccc(CN2CCN(c3ccnc(-c4cnc5ccc(C(F)(F)F)cn45)n3)CC2c2cn[nH]c2)c1` (centres unmarked) [I-458, 3-(4-(4-(3-fluorobenzyl)-3-(1H-pyrazol-4-yl)piperazin-1-yl)pyrimidin-2-yl)-6-(trifluoromethyl)imidazo[1,2-a]pyridine] was tested. Which IC50 did it give?
Its IC50 is 10 to 100 nM.

Which IC50 does the source give for `O=C(CO)N[C@H]1C[C@H](O)CN(c2ccnc(-c3cnc4ccc(C(F)(F)F)cn34)n2)C1` [I-253, 2-hydroxy-N-((3S,5S)-5-hydroxy-1-(2-(6-(trifluoromethyl)imidazo[1,2-a]pyridin-3-yl)pyrimidin-4-yl)piperidin-3-yl)acetamide] here?
Its IC50 is 100 to 1000 nM.

With `Cc1nnc(C)n1[C@H]1C[C@@H](C)CN(c2nccc(-c3cnc4ccc(C(F)(F)F)cn34)n2)C1` [I-466, 3-(2-((3S,5R)-3-(3,5-dimethyl-4H-1,2,4-triazol-4-yl)-5-methylpiperidin-1-yl)pyrimidin-4-yl)-6-(trifluoromethyl)imidazo[1,2-a]pyridine] as the molecule, how does the IC50 read?
Its IC50 is 10 to 100 nM.

Which IC50 does the source give for `OCc1cn(C2CCCN(c3ccnc(-c4cnc5ccc(C(F)(F)F)cn45)n3)C2)nn1` (centres unmarked) [I-382, (1-(1-(2-(6-(trifluoromethyl)imidazo[1,2-a]pyridin-3-yl)pyrimidin-4-yl)piperidin-3-yl)-1H-1,2,3-triazol-4-yl)methanol] here?
Its IC50 is 100 to 1000 nM.

Which IC50 does the source give for `NC(=O)C1CC(F)CN(c2ccnc(-c3cnc4ccc(C(F)(F)F)cn34)n2)C1` (centres unmarked) [I-229, 5-fluoro-1-(2-(6-(trifluoromethyl)imidazo[1,2-a]pyridin-3-yl)pyrimidin-4-yl)piperidine-3-carboxamide] here?
Its IC50 is less than 10 nM.

For `O=C(N1CCN(c2ccnc(-c3cnc4ccc(C(F)(F)F)cn34)n2)CC1c1cn[nH]c1)C1(C(F)F)CC1` (centres unmarked) [I-488, (2-(1H-pyrazol-4-yl)-4-(2-(6-(trifluoromethyl)imidazo[1,2-a]pyridin-3-yl)pyrimidin-4-yl)piperazin-1-yl)(1-(difluoromethyl)cyclopropyl)methanone], which IC50 is on record?
Its IC50 is 10 to 100 nM.

Which IC50 does the source give for `O=C(O)C1CN(c2ccnc(-c3cnc4ccc(C(F)(F)F)cn34)n2)CC(F)(F)C1` (centres unmarked) [I-205, 5,5-Difluoro-1-[2-(6-trifluoromethyl-imidazo[1,2-a]pyridin-3-yl)-pyrimidin-4-yl]-piperidine-3-carboxylic acid] here?
Its IC50 is 10 to 100 nM.

For `NC(=O)CC1CCCN(c2ccnc(-c3cnc4ccc(C(F)(F)F)cn34)n2)C1` (centres unmarked) [I-166, 2-(1-(2-(6-(trifluoromethyl)imidazo[1,2-a]pyridin-3-yl)pyrimidin-4-yl)piperidin-3-yl)acetamide], which IC50 is on record?
Its IC50 is 10 to 100 nM.

`CC(C)(C)OC(=O)C1(O)CCCN(c2ccnc(-c3cnc4ccc(C(F)(F)F)cn34)n2)C1` (centres unmarked) [I-212, tert-butyl 3-hydroxy-1-(2-(6-(trifluoromethyl)imidazo[1,2-a]pyridin-3-yl)pyrimidin-4-yl)piperidine-3-carboxylate] was tested. Which IC50 did it give?
The IC50 was 100 to 1000 nM.

For `C[C@H]1CN(c2nccc(-c3cnc4ccc(C(F)(F)F)cn34)n2)C[C@@H](c2nn[nH]n2)O1` [I-189, (2S,6S)-2-methyl-6-(2H-tetrazol-5-yl)-4-(4-(6-(trifluoromethyl)imidazo[1,2-a]pyridin-3-yl)pyrimidin-2-yl)morpholine], which IC50 is on record?
The IC50 was 10 to 100 nM.

With `C[C@H]1CN(c2ccnc(-c3cnc4ccc(C(F)(F)F)cn34)n2)C[C@H](C(N)=O)O1` [I-129, (2R,6 S)-6-methyl-4-(2-(6-(trifluoromethyl)imidazo[1,2-a]pyridin-3-yl)pyrimidin-4-yl)morpholine-2-carboxamide] as the molecule, how does the IC50 read?
The IC50 was 10 to 100 nM.

Which IC50 does the source give for `O=S1(=O)CCN2CCN(c3ccnc(-c4cnc5ccc(C(F)(F)F)cn45)n3)CC2C1` (centres unmarked) [I-338, 8-(2-(6-(trifluoromethyl)imidazo[1,2-a]pyridin-3-yl)pyrimidin-4-yl)octahydropyrazino[2,1-c][1,4]thiazine 2,2-dioxide] here?
Its IC50 is 100 to 1000 nM.

Which IC50 does the source give for `Cc1[nH]ncc1[C@H]1CN(c2ccnc(-c3cnc4cc(F)c(C5CC5)cn34)n2)C[C@H](C)O1` [I-428, (2S,6S)-4-(2-(6-cyclopropyl-7-fluoroimidazo[1,2-a]pyridin-3-yl)pyrimidin-4-yl)-2-methyl-6-(5-methyl-1H-pyrazol-4-yl)morpholine] here?
Its IC50 is 10 to 100 nM.

With `NC(=O)[C@@H]1CCCN(c2nccc(-c3cnc4ccc(C(F)(F)F)cn34)n2)C1` [I-152, (R)-1-(4-(6-(trifluoromethyl)imidazo[1,2-a]pyridin-3-yl)pyrimidin-2-yl)piperidine-3-carboxamide] as the molecule, how does the IC50 read?
Its IC50 is 10 to 100 nM.

Which IC50 does the source give for `Fc1ccc(CN2CCN(c3ccnc(-c4cnc5ccc(C(F)(F)F)cn45)n3)CC2c2cn[nH]c2)cc1` (centres unmarked) [I-457, 3-(4-(4-(4-fluorobenzyl)-3-(1H-pyrazol-4-yl)piperazin-1-yl)pyrimidin-2-yl)-6-(trifluoromethyl)imidazo[1,2-a]pyridine] here?
The IC50 was 10 to 100 nM.

With `O=C(N[C@H]1C[C@H](O)CN(c2ccnc(-c3cnc4ccc(C(F)(F)F)cn34)n2)C1)c1cn[nH]c1` [I-257, N-((3S,5S)-5-hydroxy-1-(2-(6-(trifluoromethyl)imidazo[1,2-a]pyridin-3-yl)pyrimidin-4-yl)piperidin-3-yl)-1H-pyrazole-4-carboxamide] as the molecule, how does the IC50 read?
Its IC50 is 100 to 1000 nM.

Which IC50 does the source give for `O=C1NC[C@]12CCCN(c1ccnc(-c3cnc4ccc(C(F)(F)F)cn34)n1)C2` [I-296, (S)-6-(2-(6-(trifluoromethyl)imidazo[1,2-a]pyridin-3-yl)pyrimidin-4-yl)-2,6-diazaspiro[3.5]nonan-1-one] here?
Its IC50 is 100 to 1000 nM.

For `Cc1noc([C@@H]2CN(c3ccnc(-c4cnc5cc(F)c(C6CC6)cn45)n3)C[C@H](C)O2)n1` [I-341, (2S,6S)-4-(2-(6-cyclopropyl-7-fluoroimidazo[1,2-a]pyridin-3-yl)pyrimidin-4-yl)-2-methyl-6-(3-methyl-1,2,4-oxadiazol-5-yl)morpholine], which IC50 is on record?
Its IC50 is 100 to 1000 nM.

For `C[C@H]1[C@H](c2cn[nH]c2)NCCN1c1ccnc(-c2cnc3ccc(C(F)(F)F)cn23)n1` [I-535, 3-(4-((2S,3 S)-2-methyl-3-(1H-pyrazol-4-yl)piperazin-1-yl)pyrimidin-2-yl)-6-(trifluoromethyl)imidazo[1,2-a]pyridine], which IC50 is on record?
Its IC50 is 100 to 1000 nM.

`C[C@@H]1C[C@@H](c2cn[nH]c2)CN(c2nccc(-c3cnc4ccc(Cl)cn34)n2)C1` (stereo in doubt) [I-195, 6-chloro-3-(2-((3R,5S)-3-methyl-5-(1H-pyrazol-4-yl)piperidin-1-yl)pyrimidin-4-yl)imidazo[1,2-a]pyridine] was tested. Which IC50 did it give?
The IC50 was 10 to 100 nM.

`Cc1noc(C2CN(c3ccnc(-c4cnc5ccc(C(F)(F)F)cn45)n3)CCN2C)n1` (centres unmarked) [I-332, 3-methyl-5-(1-methyl-4-(2-(6-(trifluoromethyl)imidazo[1,2-a]pyridin-3-yl)pyrimidin-4-yl)piperazin-2-yl)-1,2,4-oxadiazole] was tested. Which IC50 did it give?
The IC50 was 100 to 1000 nM.

How did the IC50 turn out when `CC1CN(c2ccnc(-c3cnc4ccc(Cl)cn34)n2)C(C)C(c2cn[nH]c2)N1` (centres unmarked) [I-122, 6-Chloro-3-(4-(2,5-dimethyl-3-(1H-pyrazol-4-yl)piperazin-1-yl)pyrimidin-2-yl)imidazo[1,2-a]pyridine] was run?
The IC50 was less than 10 nM.

How did the IC50 turn out when `N#CC1(C(=O)n2cc([C@@H]3CN(c4ccnc(-c5cnc6ccc(C(F)(F)F)cn56)n4)CCN3)cn2)CC1` [I-433, (R)-1-(4-(4-(2-(6-(trifluoromethyl)imidazo[1,2-a]pyridin-3-yl)pyrimidin-4-yl)piperazin-2-yl)-1H-pyrazole-1-carbonyl)cyclopropane-1-carbonitrile] was run?
The IC50 was 10 to 100 nM.

same assay, conditions: Ki(app); 280 μM ATP, 200 μM (RS)7 peptide, 4 nM GCN2, 25° C.

`O=C1NCC2CN(c3ccnc(-c4cnc5ccc(Cl)cn45)n3)CCN12` (centres unmarked) [I-97, 7-(2-{6-chloroimidazo[1,2-a]pyridin-3-yl}pyrimidin-4-yl)-octahydroimidazo[1,5-a]pyrazin-3-one] was tested. Which Ki did it give?
The Ki was 10 to 100 nM.
